Experiment in all cases: biochemical
Common to all, as to set-up: KINOMEscan competition binding panel (Eurofins DiscoverX), single concentration, percent inhibition
Common to all, as to conditions: read-out: 15 at 1 µM % inhibition

Assay [1] deals with T1, DCAMKL1 (Homo sapiens, UniProt O15075).
T1 construct: gene DCLK1
The method, boiled down:
(§1)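 Values come from single-concentration (1 µM) profiling in the Eurofins DiscoverX KINOMEscan competition-binding platform, which covers over 400 kinases.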

Assay [2] has as its target TTK (Homo sapiens, UniProt P33981). The method, boiled down: as §1
Assay [3] addresses WEE2 (Homo sapiens, UniProt P0C1S8). The gist of the method:
as §1

Assay [4] deals with T2, IKK-alpha (Homo sapiens, UniProt O15111).
T2 construct: gene CHUK
The gist of the method:
as §1

Assay [5] concerns the target PIM3 (Homo sapiens, UniProt Q86V86). The method, boiled down: as §1
The target of assay [6] is T3, CDK4-cyclinD3 (Homo sapiens, UniProt P11802).
T3 construct: cyclinD3
The method, boiled down:
as §1

Assay [7] concerns the target PRKD2 (Homo sapiens, UniProt Q9BZL6). The gist of the method:
as §1

For assay [8], the target named is EGFR(L747-E749del, A750P) (Homo sapiens, UniProt P00533, A750P/DEL747-749). The method, boiled down:
as §1

The target of assay [9] is FGFR3(G697C) (Homo sapiens, UniProt P22607, G697C). The method, boiled down: as §1
Assay [10] deals with CSF1R (Homo sapiens, UniProt P07333). The method, boiled down: as §1
The target of assay [11] is PRKCD (Homo sapiens, UniProt Q05655). The method, boiled down:
as §1

Assay [12] concerns the target PIK3CA(Q546K) (Homo sapiens, UniProt P42336, Q546K). The gist of the method:
as §1

Assay [13] deals with ALK(L1196M) (Homo sapiens, UniProt Q9UM73, L1196M). The method, boiled down: as §1
In assay [14] the target is T4, TYK2(JH1domain-catalytic) (Homo sapiens, UniProt P29597).
T4 construct: JH1domain-catalytic
The method, boiled down:
as §1

The target of assay [15] is HIPK1 (Homo sapiens, UniProt Q86Z02). The method, boiled down: as §1
Assay [16] addresses CAMKK2 (Homo sapiens, UniProt Q96RR4). The method, boiled down:
as §1

The target of assay [17] is EGFR(G719S) (Homo sapiens, UniProt P00533, G719S). The method, boiled down:
as §1

Assay [18] addresses TSSK1B (Homo sapiens, UniProt Q9BXA7). The method, boiled down:
as §1

Assay [19] deals with FGFR1 (Homo sapiens, UniProt P11362). The gist of the method: as §1
Assay [20] has as its target CDK2 (Homo sapiens, UniProt P24941). The method, boiled down:
as §1

In assay [21] the target is RET(V804M) (Homo sapiens, UniProt P07949, V804M). The gist of the method:
as §1

In assay [22] the target is ROCK2 (Homo sapiens, UniProt O75116). The gist of the method: as §1
Assay [23] addresses MUSK (Homo sapiens, UniProt O15146). The gist of the method:
as §1

For assay [24], the target named is CSNK2A2 (Homo sapiens, UniProt P19784). The gist of the method:
as §1

HIPK1, sequence (Q86Z02 whole entry): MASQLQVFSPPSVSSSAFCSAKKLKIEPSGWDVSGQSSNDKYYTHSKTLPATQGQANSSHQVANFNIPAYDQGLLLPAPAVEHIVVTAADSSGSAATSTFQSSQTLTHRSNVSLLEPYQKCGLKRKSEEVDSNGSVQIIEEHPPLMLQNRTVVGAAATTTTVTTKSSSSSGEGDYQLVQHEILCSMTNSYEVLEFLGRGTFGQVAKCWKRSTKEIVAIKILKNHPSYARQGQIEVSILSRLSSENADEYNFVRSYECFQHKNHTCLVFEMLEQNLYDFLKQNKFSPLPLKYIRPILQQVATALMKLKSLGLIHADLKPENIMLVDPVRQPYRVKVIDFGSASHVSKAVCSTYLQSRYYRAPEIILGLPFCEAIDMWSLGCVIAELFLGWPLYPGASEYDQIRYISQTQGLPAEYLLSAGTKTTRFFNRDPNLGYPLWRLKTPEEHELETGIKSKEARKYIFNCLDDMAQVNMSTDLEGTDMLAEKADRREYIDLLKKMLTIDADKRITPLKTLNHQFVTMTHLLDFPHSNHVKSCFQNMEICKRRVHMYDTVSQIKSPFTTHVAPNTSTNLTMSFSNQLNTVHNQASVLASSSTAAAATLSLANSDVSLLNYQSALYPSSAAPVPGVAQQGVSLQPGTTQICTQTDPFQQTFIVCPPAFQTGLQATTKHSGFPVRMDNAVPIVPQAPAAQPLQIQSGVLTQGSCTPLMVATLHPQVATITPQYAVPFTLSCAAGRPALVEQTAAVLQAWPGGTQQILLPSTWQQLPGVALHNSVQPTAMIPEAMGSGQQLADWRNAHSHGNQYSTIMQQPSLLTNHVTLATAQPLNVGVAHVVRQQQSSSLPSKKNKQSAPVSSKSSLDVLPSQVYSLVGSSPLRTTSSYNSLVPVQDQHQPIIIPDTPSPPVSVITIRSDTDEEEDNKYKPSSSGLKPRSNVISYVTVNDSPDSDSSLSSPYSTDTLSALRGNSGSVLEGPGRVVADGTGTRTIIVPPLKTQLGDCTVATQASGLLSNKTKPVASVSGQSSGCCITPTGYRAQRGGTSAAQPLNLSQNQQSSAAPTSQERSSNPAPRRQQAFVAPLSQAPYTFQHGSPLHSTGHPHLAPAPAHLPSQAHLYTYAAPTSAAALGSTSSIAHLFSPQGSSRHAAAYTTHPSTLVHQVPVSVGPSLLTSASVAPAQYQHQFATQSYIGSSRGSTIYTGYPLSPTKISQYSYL
ROCK2, sequence (O75116 whole entry): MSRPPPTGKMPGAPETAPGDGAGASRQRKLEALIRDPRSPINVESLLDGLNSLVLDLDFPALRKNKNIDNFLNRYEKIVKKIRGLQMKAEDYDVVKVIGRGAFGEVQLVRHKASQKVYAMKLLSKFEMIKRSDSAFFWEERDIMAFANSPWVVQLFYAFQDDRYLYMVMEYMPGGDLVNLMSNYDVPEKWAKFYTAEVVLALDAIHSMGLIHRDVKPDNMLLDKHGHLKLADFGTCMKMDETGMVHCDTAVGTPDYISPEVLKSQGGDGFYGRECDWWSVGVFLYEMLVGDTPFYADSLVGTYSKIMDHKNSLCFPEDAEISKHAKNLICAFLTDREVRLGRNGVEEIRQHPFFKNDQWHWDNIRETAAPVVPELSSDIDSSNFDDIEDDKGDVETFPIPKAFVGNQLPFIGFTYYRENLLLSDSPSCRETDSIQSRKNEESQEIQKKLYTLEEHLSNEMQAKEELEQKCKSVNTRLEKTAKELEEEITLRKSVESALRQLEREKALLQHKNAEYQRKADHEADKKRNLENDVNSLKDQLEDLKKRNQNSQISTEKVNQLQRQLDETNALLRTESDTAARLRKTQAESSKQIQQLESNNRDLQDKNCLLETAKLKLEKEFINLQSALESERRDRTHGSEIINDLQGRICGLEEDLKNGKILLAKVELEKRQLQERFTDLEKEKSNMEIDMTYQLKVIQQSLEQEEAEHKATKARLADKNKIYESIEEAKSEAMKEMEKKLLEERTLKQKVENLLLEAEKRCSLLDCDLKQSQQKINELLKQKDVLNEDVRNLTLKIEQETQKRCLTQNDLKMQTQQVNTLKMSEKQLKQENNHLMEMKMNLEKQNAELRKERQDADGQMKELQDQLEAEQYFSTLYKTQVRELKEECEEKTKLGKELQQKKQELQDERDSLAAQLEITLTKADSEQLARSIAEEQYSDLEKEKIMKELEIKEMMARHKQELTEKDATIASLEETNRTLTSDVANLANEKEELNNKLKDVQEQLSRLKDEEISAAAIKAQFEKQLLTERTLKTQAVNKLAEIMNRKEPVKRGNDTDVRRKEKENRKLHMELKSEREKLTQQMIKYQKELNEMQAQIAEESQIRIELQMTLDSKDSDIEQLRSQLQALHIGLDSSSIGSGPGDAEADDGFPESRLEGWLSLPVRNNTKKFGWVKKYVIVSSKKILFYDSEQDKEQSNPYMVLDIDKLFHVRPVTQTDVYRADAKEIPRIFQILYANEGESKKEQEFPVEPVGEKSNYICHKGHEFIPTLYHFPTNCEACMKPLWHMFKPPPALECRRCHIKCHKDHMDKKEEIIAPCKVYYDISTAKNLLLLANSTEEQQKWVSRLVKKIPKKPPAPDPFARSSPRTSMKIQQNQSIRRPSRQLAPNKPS
CSNK2A2, sequence (P19784 whole entry): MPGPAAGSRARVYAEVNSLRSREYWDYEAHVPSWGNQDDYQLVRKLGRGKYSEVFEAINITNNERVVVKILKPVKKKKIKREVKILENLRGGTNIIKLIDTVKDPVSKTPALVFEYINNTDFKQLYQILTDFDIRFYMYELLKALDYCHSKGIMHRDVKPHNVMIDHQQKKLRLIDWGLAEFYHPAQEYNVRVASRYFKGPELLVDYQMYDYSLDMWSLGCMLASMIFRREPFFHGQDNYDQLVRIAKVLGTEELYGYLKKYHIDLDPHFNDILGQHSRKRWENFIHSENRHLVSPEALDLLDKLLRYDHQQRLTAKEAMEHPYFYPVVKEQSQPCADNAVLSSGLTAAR
T3 sequence (P11802 whole entry): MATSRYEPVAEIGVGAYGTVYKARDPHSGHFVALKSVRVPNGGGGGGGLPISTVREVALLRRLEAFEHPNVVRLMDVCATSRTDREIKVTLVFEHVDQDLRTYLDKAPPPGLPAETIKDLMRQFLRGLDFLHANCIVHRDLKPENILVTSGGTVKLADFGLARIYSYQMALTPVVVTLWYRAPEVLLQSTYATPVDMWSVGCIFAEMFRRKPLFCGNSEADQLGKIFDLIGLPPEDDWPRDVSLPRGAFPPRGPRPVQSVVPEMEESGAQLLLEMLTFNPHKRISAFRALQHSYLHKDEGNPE
T3 sequence (P30281 whole entry partner): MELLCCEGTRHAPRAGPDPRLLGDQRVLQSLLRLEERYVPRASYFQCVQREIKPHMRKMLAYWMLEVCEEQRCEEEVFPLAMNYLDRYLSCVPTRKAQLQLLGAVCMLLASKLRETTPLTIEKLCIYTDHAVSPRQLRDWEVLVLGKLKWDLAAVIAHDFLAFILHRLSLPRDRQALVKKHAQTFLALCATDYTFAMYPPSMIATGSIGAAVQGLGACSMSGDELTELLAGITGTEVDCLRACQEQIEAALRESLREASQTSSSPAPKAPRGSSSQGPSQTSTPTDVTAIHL
PIK3CA(Q546K), sequence (P42336 whole entry Q546K): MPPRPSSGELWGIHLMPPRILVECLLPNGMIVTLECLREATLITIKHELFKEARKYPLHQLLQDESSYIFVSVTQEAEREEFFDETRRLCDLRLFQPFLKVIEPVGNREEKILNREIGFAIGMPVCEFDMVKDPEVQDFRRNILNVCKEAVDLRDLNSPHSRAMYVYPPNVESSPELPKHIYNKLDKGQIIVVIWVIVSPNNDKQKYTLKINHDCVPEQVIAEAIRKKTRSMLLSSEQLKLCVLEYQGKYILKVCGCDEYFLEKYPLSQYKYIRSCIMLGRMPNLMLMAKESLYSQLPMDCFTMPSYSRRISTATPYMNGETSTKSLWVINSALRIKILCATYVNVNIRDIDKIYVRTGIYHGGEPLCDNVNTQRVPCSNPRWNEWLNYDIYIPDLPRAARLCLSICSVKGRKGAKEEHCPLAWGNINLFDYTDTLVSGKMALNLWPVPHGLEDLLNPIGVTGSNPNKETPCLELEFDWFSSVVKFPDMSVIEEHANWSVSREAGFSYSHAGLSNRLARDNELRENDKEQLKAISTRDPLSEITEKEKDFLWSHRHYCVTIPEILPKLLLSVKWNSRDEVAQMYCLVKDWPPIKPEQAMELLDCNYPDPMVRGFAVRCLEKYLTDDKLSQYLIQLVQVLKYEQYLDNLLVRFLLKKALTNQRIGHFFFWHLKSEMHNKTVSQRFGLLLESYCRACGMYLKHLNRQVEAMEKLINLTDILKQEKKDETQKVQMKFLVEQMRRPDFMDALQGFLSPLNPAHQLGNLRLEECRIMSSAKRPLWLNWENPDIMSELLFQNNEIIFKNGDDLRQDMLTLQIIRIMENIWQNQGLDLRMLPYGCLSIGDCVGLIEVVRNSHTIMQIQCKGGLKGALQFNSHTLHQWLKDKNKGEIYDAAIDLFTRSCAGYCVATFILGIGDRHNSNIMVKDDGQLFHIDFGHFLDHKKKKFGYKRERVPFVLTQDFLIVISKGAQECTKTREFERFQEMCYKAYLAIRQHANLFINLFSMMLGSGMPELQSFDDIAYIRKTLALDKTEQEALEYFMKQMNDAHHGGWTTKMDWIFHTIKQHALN

By inhibition is commonly meant the change of the read-out against control, counted positive when it falls. Consider `CNS(=O)(=O)c1ccc(N(C)C)c(Nc2nc(C)nc3cc(OC)c(OC)cc23)c1` [compound 15, 3-((6,7-dimethoxy-2-methylquinazolin-4-yl)amino)-4-(dimethylamino)-N-methylbenzenesulfonamide], for which the inhibition at 1 µM came to 9% in assay [1]; 2% in [2]; 0% in assay [3]; 33% in assay [4]; 3% in assay [5]; 15% in assay [6]. Moreover, the inhibition at 1 µM in [7] worked out at 13%; in assay [8], 0%; in assay [9] it was 0%; in assay [10], 0%; in [11], 1%; in assay [12] it was 37%. For the same molecule, the inhibition at 1 µM was 12% in [13]; 0% in [14]; 7% in assay [15]; 3% in assay [16]; 0% in [17]; 9% in assay [18]. Moreover, the inhibition at 1 µM in [19] was 10%; in [20], 0%; in assay [21], 0%; in [22], 5%; in [23], 0%; in assay [24], 14%.

Source of the values: publication PMC7180948, “New Insights into 4-Anilinoquinazolines as Inhibitors of Cardiac Troponin I–Interacting Kinase (TNNi3K)” (Molecules, 2020).
